Laboratory results: patent US6190699A, “Method of incorporating proteins or peptides into a matrix and administration thereof through mucosa” (NZL Corporation, priority 1998, dated 2001)
Like-named read-outs stand apart in the source and are kept apart here.

Assays:
diabetic rabbits = assay: Blood glucose levels in alloxan-diabetic rabbits after intravenous or intranasal insulin; type: in vivo, Male New Zealand White rabbits; settings: intravenous injection, 0.3 and 0.4 U/kg insulin, -30 to 300 minutes (FIG. 1)
rats = settings: cited from earlier work
[1] = Serum insulin levels (radio immune assay) in diabetic rabbits; settings: intravenous injection, 0.3 and 0.4 U/kg insulin, diabetic rabbits (FIG. 2)
Method: The animals used in this study were Male New Zealand White rabbits weighing approximately 2.5 kg. (Charles River Labs, Amherst, Mass.). The animals were housed individually in cages and given standard animal chow and water. All animals were treated according to the Guiding Principles for Laboratory Animal Care of the American Physiologic Society.
The animals were made diabetic by intravenously injecting 80 mg/kg of Alloxan suspended in isotonic saline solution into the animal. The animals' blood glucose levels were monitored every two to three hours for the first three days. When glucose levels reached 500 mg/dl during the first three days, insulin (0.15 U/kg) was administered.
Prior to the experiment, the animals were fasted for 16 hours. The animals were then anesthetized by intravenously administering 30 mg/kg sodium pentobarbital. Forty minutes following the initial dose of pentobarbital, a second dose (6 mg/kg) was administered to the animals. […]
The animals were placed into groups of 3 to 7 animals for each experiment. […] Blood glucose levels and serum insulin levels were measured for each experiment. […]
Following the blood glucose analysis, serum samples were obtained by centrifuging the blood samples collected at 3000 rpm for 10 minutes. […] Serum insulin levels were determined using radio immune assay kits. […]

Substance: insulin
- blood glucose levels (diabetic rabbits): showed a fall in blood glucose levels
- increase in concentration of insulin required intranasally to reach plasma glucose levels similar to parenteral administration (rats; intranasal vs parenteral): 10 fold
- plasma glucose levels (rats; intravenous administration): decreased significantly
- plasma glucose levels (rats; oral administration): only slightly decreased
- serum insulin levels [1]: serum insulin levels increased as the blood glucose levels fell
